The assay concerns the target TBK1 (Homo sapiens (Human), UniProt Q9UHD2). Put plainly: TBK1 low ATP kinase assay (in vitro assay 1). Format: biochemical. Particulars: in vitro assay 1, read-out: TBK1 low ATP kinase assay IC50.
Sequence of TBK1 (Q9UHD2 whole entry): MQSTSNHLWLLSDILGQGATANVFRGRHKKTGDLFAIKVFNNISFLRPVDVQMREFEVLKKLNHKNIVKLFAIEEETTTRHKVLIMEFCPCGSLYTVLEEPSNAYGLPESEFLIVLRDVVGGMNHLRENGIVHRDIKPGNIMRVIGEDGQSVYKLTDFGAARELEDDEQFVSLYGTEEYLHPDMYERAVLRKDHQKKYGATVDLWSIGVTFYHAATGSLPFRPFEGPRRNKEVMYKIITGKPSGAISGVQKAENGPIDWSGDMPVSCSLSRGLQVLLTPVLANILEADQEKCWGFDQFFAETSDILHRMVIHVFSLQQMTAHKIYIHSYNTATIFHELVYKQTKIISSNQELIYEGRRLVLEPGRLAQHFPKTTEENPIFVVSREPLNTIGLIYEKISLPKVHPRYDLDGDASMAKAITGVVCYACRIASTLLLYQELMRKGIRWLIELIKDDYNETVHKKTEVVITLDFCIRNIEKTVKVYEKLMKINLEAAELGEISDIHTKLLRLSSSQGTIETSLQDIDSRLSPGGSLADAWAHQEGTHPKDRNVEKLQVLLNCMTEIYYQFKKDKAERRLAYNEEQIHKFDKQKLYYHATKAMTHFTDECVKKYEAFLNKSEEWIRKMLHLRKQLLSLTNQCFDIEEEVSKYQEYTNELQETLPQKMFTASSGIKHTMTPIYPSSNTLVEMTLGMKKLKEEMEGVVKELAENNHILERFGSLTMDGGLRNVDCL
As for `Cc1cc(-c2ccc3nc(Nc4cc(CN5CCN(C(=O)CC(F)(F)F)CC5)ccn4)[nH]c3c2)nc(C)n1` [Example 31.01, 1-{4-[(2-{[6-(2,6-dimethylpyrimidin-4-yl)-1H-benzimidazol-2-yl]amino}pyridin-4-yl)methyl]piperazin-1-yl}-3,3,3-trifluoropropan-1-one], the IC50 is 86.8 nM.

Take `O=C(CC(F)(F)F)N1CCN(Cc2ccnc(Nc3nc4ccc(-c5ccsc5Cl)cc4[nH]3)c2)CC1` [Example 175.02, 1-{4-[(2-{[6-(2-chlorothiophen-3-yl)-1H-benzimidazol-2-yl]amino}pyridin-4-yl)methyl]piperazin-1-yl}-3,3,3-trifluoropropan-1-one]: the IC50 was 353 nM. As for `CC(c1ccnc(Nc2nc3ccc(-c4ccncn4)cc3[nH]2)c1)N1CCN(C(=O)CC(F)(F)F)CC1` (single isomer, unassigned) [Example 23.05.02.B, 3,3,3-trifluoro-1-{4-[(1S or 1R)-1-(2-{[6-(pyrimidin-4-yl)-1H-benzimidazol-2-yl]amino}pyridin-4-yl)ethyl]piperazin-1-yl}propan-1-one], the figure is 1.86 nM; as for `Cc1nccc(-c2ccc3nc(Nc4cc(CN5CCN(C(=O)OC(C)(C)C)CC5)ccn4)[nH]c3c2)c1Cl` [Example 130.01, tert-butyl 4-[(2-{[6-(3-chloro-2-methylpyridin-4-yl)-1H-benzimidazol-2-yl]amino}pyridin-4-yl)methyl]piperazine-1-carboxylate], 890 nM. On to `CC(c1ccnc(Nc2nc3ccc(-c4cc(N5CCCC5)ncn4)cc3[nH]2)c1)N1CCN(C(=O)C2CC2(F)F)CC1` (single isomer, unassigned) [Example 117.05, ((1RS)-2,2-difluorocyclopropyl)(4-{(1R or 1S)-1-[2-({6-[6-(pyrrolidin-1-yl)pyrimidin-4-yl]-1H-benzimidazol-2-yl}amino)pyridin-4-yl]ethyl}piperazin-1-yl)methanone], for which the IC50 worked out at 0.473 nM.

`Cc1nccc(-c2ccc3nc(Nc4cc(C(C)N5CCN(C(=O)C6CC6)CC5)ccn4)[nH]c3c2)n1` (single isomer, unassigned) [Example 24.05.04.B, cyclopropyl{4-[(1S or 1R)-1-(2-{[6-(2-methylpyrimidin-4-yl)-1H-benzimidazol-2-yl]amino}pyridin-4-yl)ethyl]piperazin-1-yl}methanone]: the IC50 is 33.9 nM. As for `Cc1noc(-c2ccc3nc(Nc4cc(CN5CCN(C(=O)c6ccccc6)CC5)ccn4)[nH]c3c2)n1` [Example 101.10, {4-[(2-{[6-(3-methyl-1,2,4-oxadiazol-5-yl)-1H-benzimidazol-2-yl]amino}pyridin-4-yl)methyl]piperazin-1-yl}(phenyl)methanone], the figure is 180 nM; as for `CCn1cc(-c2ccc3nc(Nc4cc(CN5CCN(C(=O)C6CC6)CC5)ccn4)[nH]c3c2OCC(C)C)cn1` [Example 52.02, cyclopropyl{4-[(2-{[6-(1-ethyl-1H-pyrazol-4-yl)-7-(2-methylpropoxy)-1H-benzimidazol-2-yl]amino}pyridin-4-yl)methyl]piperazin-1-yl}methanone], 36.9 nM. As for `O=C(C1CC1)N1CCN(Cc2ccnc(Nc3nc4ccc(-c5cnn(CC(F)(F)F)c5)cc4[nH]3)c2)CC1` [Example 58.01.03, cyclopropyl(4-{[2-({6-[1-(2,2,2-trifluoroethyl)-1H-pyrazol-4-yl]-1H-benzimidazol-2-yl}amino)pyridin-4-yl]methyl}piperazin-1-yl)methanone], the figure is 6.44 nM; as for `CC(c1ccnc(Nc2nc3ccc(-c4cnn(CC5CC5(F)F)c4)cc3[nH]2)c1)N1CCN(C(=O)C2CC2)CC1` (single isomer, unassigned) [Example 55.03, cyclopropyl{4-[(1R or 1S)-1-(2-{[6-(1-{[(1RS)-2,2-difluorocyclopropyl]methyl}-1H-pyrazol-4-yl)-1H-benzimidazol-2-yl]amino}pyridin-4-yl)ethyl]piperazin-1-yl}methanone], 0.564 nM.

The IC50 is the midpoint of a concentration-inhibition curve.

These data come from patent US10894784B2, “Heteroarylbenzimidazole compounds” (BAYER PHARMA AKTIENGESELLSCHAFT, priority 2015, dated 2021).
